Test results from ChEMBL document CHEMBL1201862, “PubChem BioAssay data set” (2004).
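Cultured in 96-well plates, cells were exposed to test compound for 48 hours across five concentrations. GI50 = concentration required for 50% inhibition of growth.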 Active and inactive are the calls of the source. Cut-off read from the data, not from the text of the source: active = GI50 up to about 1.1 µM and inactive = higher.

Experiments:
Experiment in all cases: growth of human tumour cells (NCI), 48 h
HCT-15 = tested on: HCT-15
KM12 = tested on: KM12
SF-295 = tested on: SF-295
A549 = tested on: A549
IGROV-1 = tested on: IGROV-1
OVCAR-3 = tested on: OVCAR-3
NCI-H23 = tested on: NCI-H23
DU-145 = tested on: DU-145
LOX IMVI = tested on: LOX IMVI
HOP-92 = tested on: HOP-92
RXF 393 = tested on: RXF 393
MDA-MB-231 = tested on: MDA-MB-231
CAKI-1 = tested on: CAKI-1
UACC-62 = tested on: UACC-62
SK-MEL-28 = tested on: SK-MEL-28
K562 = tested on: K562
NCI-H226 = tested on: NCI-H226
TK-10 = tested on: TK-10
PC-3 = tested on: PC-3
SR = tested on: SR
EKVX = tested on: EKVX
UACC-257 = tested on: UACC-257
BT-549 = tested on: BT-549
SF-268 = tested on: SF-268
OVCAR-4 = tested on: OVCAR-4
OVCAR-5 = tested on: OVCAR-5
HOP-62 = tested on: HOP-62
M14 = tested on: M14
ACHN = tested on: ACHN
HCC 2998 = tested on: HCC 2998
NCI-H522 = tested on: NCI-H522
SN12C = tested on: SN12C
MOLT-4 = tested on: MOLT-4
Hs-578T = tested on: Hs-578T
786-0 = tested on: 786-0
Malme-3M = tested on: Malme-3M
UO-31 = tested on: UO-31
SNB-75 = tested on: SNB-75
SW-620 = tested on: SW-620
NCI-H460 = tested on: NCI-H460
U-251 = tested on: U-251
NCI/ADR-RES = tested on: NCI/ADR-RES
A498 = tested on: A498
SNB-19 = tested on: SNB-19
T47D = tested on: T47D
HCT-116 = tested on: HCT-116
HT-29 = tested on: HT-29
SK-MEL-5 = tested on: SK-MEL-5
SK-MEL-2 = tested on: SK-MEL-2
MDA-MB-435 = tested on: MDA-MB-435
MCF7 = tested on: MCF7
CCRF-CEM = tested on: CCRF-CEM
RPMI-8226 = tested on: RPMI-8226
SF-539 = tested on: SF-539
SK-OV-3 = tested on: SK-OV-3
OVCAR-8 = tested on: OVCAR-8
COLO 205 = tested on: COLO 205
HL-60 = tested on: HL-60
MDA-N = tested on: MDA-N

For C[N+](C)([O-])Cc1cc(-c2ccccc2)ccc1O, the GI50 (HCT-15) was > 100 µM, the GI50 (KM12) was > 100 µM (inactive) and the GI50 (SF-295) was > 100 µM (inactive). The GI50 (A549) was > 100 µM (inactive), the GI50 (IGROV-1) was > 100 µM (inactive) and the GI50 (OVCAR-3) was > 100 µM (inactive). The GI50 (NCI-H23) was > 100 µM (inactive), the GI50 (DU-145) was > 100 µM (inactive) and the GI50 (LOX IMVI) was > 100 µM (inactive). For the same molecule, the GI50 (HOP-92) was > 100 µM (inactive), the GI50 (RXF 393) was > 100 µM (inactive) and the GI50 (MDA-MB-231) was > 100 µM (inactive). The GI50 (CAKI-1) was > 100 µM (inactive), the GI50 (UACC-62) was > 100 µM (inactive) and the GI50 (SK-MEL-28) was > 100 µM (inactive). The GI50 (K562) was > 100 µM (inactive), the GI50 (NCI-H226) was > 100 µM (inactive) and the GI50 (TK-10) was > 100 µM (inactive). For the same molecule, the GI50 (PC-3) was > 100 µM (inactive), the GI50 (SR) was 49.1 µM (inactive) and the GI50 (EKVX) was > 100 µM (inactive). The GI50 (UACC-257) was > 100 µM (inactive), the GI50 (BT-549) was > 100 µM (inactive) and the GI50 (SF-268) was > 100 µM (inactive). For the same molecule, the GI50 (OVCAR-4) was > 100 µM (inactive), the GI50 (OVCAR-5) was > 100 µM (inactive) and the GI50 (HOP-62) was > 100 µM (inactive). The GI50 (M14) was > 100 µM (inactive), the GI50 (ACHN) was > 100 µM (inactive) and the GI50 (HCC 2998) was > 100 µM (inactive). The GI50 (NCI-H522) was > 100 µM (inactive), the GI50 (SN12C) was > 100 µM (inactive) and the GI50 (MOLT-4) was 52.5 µM (inactive). For the same molecule, the GI50 (Hs-578T) was 79.3 µM (inactive), the GI50 (786-0) was > 100 µM (inactive) and the GI50 (Malme-3M) was > 100 µM (inactive). The GI50 (UO-31) was > 100 µM (inactive), the GI50 (SNB-75) was > 100 µM (inactive) and the GI50 (SW-620) was > 100 µM (inactive). The GI50 (NCI-H460) was 72.8 µM (inactive), the GI50 (U-251) was > 100 µM (inactive) and the GI50 (NCI/ADR-RES) was > 100 µM (inactive). The GI50 (A498) was > 100 µM (inactive), the GI50 (SNB-19) was > 100 µM (inactive) and the GI50 (T47D) was > 100 µM (inactive). The GI50 (HCT-116) was > 100 µM (inactive), the GI50 (HT-29) was > 100 µM (inactive) and the GI50 (SK-MEL-5) was > 100 µM (inactive). For the same molecule, the GI50 (SK-MEL-2) was > 100 µM (inactive) and the GI50 (MDA-MB-435) was > 100 µM (inactive).
For Cc1c(N2C(=O)C(Cl)C2c2ccc(Cl)cc2)c(=O)n(-c2ccccc2)n1C (configuration not stated), the GI50 (MCF7) was 41.6 µM (inactive), the GI50 (KM12) was 27.7 µM (inactive) and the GI50 (SF-295) was > 100 µM (inactive). The GI50 (A549) was > 100 µM (inactive), the GI50 (IGROV-1) was 27.1 µM (inactive) and the GI50 (OVCAR-3) was 75.3 µM (inactive). For the same molecule, the GI50 (NCI-H23) was 23.9 µM (inactive), the GI50 (DU-145) was > 100 µM (inactive) and the GI50 (LOX IMVI) was 31 µM (inactive). For the same molecule, the GI50 (HOP-92) was 60.5 µM (inactive), the GI50 (RXF 393) was > 100 µM (inactive) and the GI50 (MDA-MB-231) was > 100 µM (inactive). The GI50 (CAKI-1) was > 100 µM (inactive), the GI50 (UACC-62) was 75.2 µM (inactive) and the GI50 (CCRF-CEM) was 23.1 µM (inactive). For the same molecule, the GI50 (K562) was 45.5 µM (inactive), the GI50 (NCI-H226) was > 100 µM (inactive) and the GI50 (TK-10) was > 100 µM (inactive). For the same molecule, the GI50 (PC-3) was > 100 µM (inactive), the GI50 (RPMI-8226) was 16 µM (inactive) and the GI50 (SR) was 26.4 µM (inactive). The GI50 (SF-539) was 36.1 µM (inactive), the GI50 (EKVX) was 71 µM (inactive) and the GI50 (UACC-257) was 14.2 µM (inactive). For the same molecule, the GI50 (BT-549) was > 100 µM (inactive), the GI50 (SF-268) was > 100 µM (inactive) and the GI50 (OVCAR-4) was > 100 µM (inactive). For the same molecule, the GI50 (SK-OV-3) was > 100 µM (inactive), the GI50 (OVCAR-5) was > 100 µM (inactive) and the GI50 (HOP-62) was 42 µM (inactive). For the same molecule, the GI50 (M14) was 62.7 µM (inactive), the GI50 (ACHN) was 23.7 µM (inactive) and the GI50 (OVCAR-8) was > 100 µM (inactive). The GI50 (NCI-H522) was 46.3 µM (inactive), the GI50 (SN12C) was > 100 µM (inactive) and the GI50 (COLO 205) was > 100 µM (inactive). The GI50 (MOLT-4) was 31.4 µM (inactive), the GI50 (786-0) was 33.1 µM (inactive) and the GI50 (Malme-3M) was > 100 µM (inactive). The GI50 (UO-31) was > 100 µM (inactive), the GI50 (SW-620) was 60.8 µM (inactive) and the GI50 (HL-60) was > 100 µM (inactive). The GI50 (NCI-H460) was > 100 µM (inactive), the GI50 (U-251) was 35.3 µM (inactive) and the GI50 (NCI/ADR-RES) was > 100 µM (inactive). The GI50 (T47D) was 88.3 µM (inactive), the GI50 (HCT-116) was 18.8 µM (inactive) and the GI50 (HT-29) was > 100 µM (inactive). For the same molecule, the GI50 (SK-MEL-5) was > 100 µM (inactive), the GI50 (SK-MEL-2) was > 100 µM (inactive) and the GI50 (MDA-N) was 30 µM (inactive). For the same molecule, the GI50 (MDA-MB-435) was 23.4 µM (inactive).
